Assay results as given in publication PMC7232442, “Biofilm Eradication by Symmetrical Selenoesters for Food-Borne Pathogens” (Microorganisms, 2020).
pIC50: −log10 of the molar value. Values after ≈ are worked out from the molar mass of the structure shown. Values joined by “and” are separate entries in the source; they are usually repeats but may differ in a detail not shown here. Identical values can stand only once. Counter-ions that a name gives are not always drawn. Like-named read-outs stand apart in the source and are kept apart here.

How the values were obtained:
[1] = tested on: S. Typhimurium SE02 ΔacrB; assay: Real-time ethidium bromide accumulation assay; format: cell-based, Salmonella enterica serovar Typhimurium; conditions: for Relative Fluorescence Index (RFI): S. Typhimurium SE02 ΔacrB, ½ MIC, minute 60
Description: (§1) The impact of compounds on EB accumulation was determined by the automated EB method using a CLARIOstar Plus plate reader (BMG Labtech, UK). Firstly, the bacterial strain was incubated until it reached an optical density (OD) of 0.6 at 600 nm. The culture was washed with phosphate buffered saline (PBS; pH 7.4) and centrifuged at 13,000× g for 3 min, the cell pellet was re-suspended in PBS. The compounds were added at ½ MIC concentration to PBS containing a non-toxic concentration of EB (1 µg/mL). Then, 50 μL of the EB solution containing the compound were transferred into 96-well black microtiter plate (Greiner Bio-One Hungary Kft, Hungary), and 50 μL of bacterial suspension (OD600 0.6) were added to the each well. Then, the plates were placed into the CLARIOstar plate reader, and the fluorescence was monitored at excitation and emission wavelengths of 530 nm and 600 nm every minute for one hour on a real-time basis. From the real-time data, the activity of the compounds, namely the relative fluorescence index (RFI) of the last time point (minute 60) of the EB accumulation assay, was calculated according to the following formula:RFI = (RFtreated − RFuntreated)/RFuntreated(2) where RFtreated is the relative fluorescence (RF) at the last time point of EB retention curve in the presence of an inhibitor, and RFuntreated is the RF at the last time point of the EB retention curve of the untreated control having the solvent control (DMSO).

[2] = tested on: S. Typhimurium SE01 Wild-Type; assay: Real-time ethidium bromide accumulation assay; format: cell-based, Salmonella enterica serovar Typhimurium; conditions: ½ MIC, minute 60
Description: as §1

[3] = tested on: S. Typhimurium SE03 ΔacrA; assay: Real-time ethidium bromide accumulation assay; format: cell-based, Salmonella enterica serovar Typhimurium; parameters: key to Relative Fluorescence Index (RFI): RFI = (RFtreated − RFuntreated)/RFuntreated at minute 60; conditions: for Relative Fluorescence Index (RFI): S. Typhimurium SE03 ΔacrA, ½ MIC, minute 60
Description: as §1

[4] = tested on: S. Typhimurium SE39 ΔtolC; assay: Real-time ethidium bromide accumulation assay; format: cell-based, Salmonella enterica serovar Typhimurium; parameters: key to Relative Fluorescence Index (RFI): RFI = (RFtreated − RFuntreated)/RFuntreated at minute 60; conditions: for Relative Fluorescence Index (RFI): S. Typhimurium SE39 ΔtolC, ½ MIC, minute 60; for Intracellular EB accumulation (in words): S. Typhimurium SE39, 60 min
Description: as §1

[5] = tested on: S. aureus ATCC 25923; assay: Real-time ethidium bromide accumulation assay; format: cell-based, Staphylococcus aureus; parameters: key to Relative Fluorescence Index (RFI): RFI = (RFtreated − RFuntreated)/RFuntreated at minute 60; conditions: for Relative Fluorescence Index (RFI): S. aureus ATCC 25923, ½ MIC, minute 60
Description: as §1

[6] = tested on: S. aureus ATCC 25923; assay: Resistance modulation assay (checkerboard) with TET or CIP; format: cell-based, Staphylococcus aureus; conditions: S. aureus ATCC 25923; no selenocompound
Description: (§2) The resistance modulation effect of compounds with ciprofloxacin (CIP) and tetracycline (TET) antibiotics were evaluated by the checkerboard method on S. aureus strains. Briefly, CIP or TET was diluted in a 96-well microtiter plate by two-fold serial dilution in MH broth and then the compounds were added at subinhibitory concentrations (½ MIC). In this assay, only the tested compounds with well-defined MIC values were tested. Finally, 10^−4 dilution of the overnight bacterial culture in MH was added to each well. The final volume was 200 µL in each well. The microtiter plates were incubated at 37 °C for 18 h. MIC values in the presence of the antibiotics alone and in combination with Se-compounds were determined by visual inspection.

[7] = tested on: S. aureus MRSA 272123; assay: as above; format: cell-based, Staphylococcus aureus; conditions: S. aureus MRSA 272123; no selenocompound
Description: as §2

[8] = tested on: C. violaceum 026 sensor strain with AHL producer E. cloacae 31298 (violacein production); assay: Quorum sensing (QS) inhibition, parallel inoculation disk diffusion; format: cell-based, Chromobacterium violaceum; conditions: disc with 10 μL compound, starting concentration ½ MIC; 24–48 h
Description: The QS inhibitory effect of selenocompounds was examined on the AHL producer E. cloacae strain and C. violaceum sensor bacterial strain. These strains were inoculated in parallel. The QS inhibition was monitored by agar diffusion method on LB* agar plate as described previously. Filter paper discs (7.0 mm in diameter) were placed between the parallel inoculated strains and impregnated with 10 μL compounds. Starting concentration of the compounds was ½ MIC. The agar plates were incubated at room temperature (20 °C) for 24–48 h and the inhibition of violacein production was measured.

[9] = tested on: S. Typhimurium SE01 Wild-Type; assay: MIC determination by microdilution method; format: cell-based, Salmonella enterica serovar Typhimurium; conditions: Salmonella enterica
Description: (§3) The minimum inhibitory concentrations (MICs) of compounds were determined according to the Clinical and Laboratory Standard Institute guidelines (CLSI). MIC values of the compounds were determined by visual inspection. The solvent was also assayed to ensure there was no antibacterial effect and the concentration (1 v/v%) applied in the assays had no antibacterial activity. DMSO was used at subinhibitory concentration (1 v/v%) in the assays.

[10] = tested on: S. aureus MRSA 272123; assay: Real-time ethidium bromide accumulation assay; format: cell-based, Staphylococcus aureus; conditions: for Relative Fluorescence Index (RFI): S. aureus MRSA 272123, ½ MIC, minute 60
Description: as §1

[11] = tested on: MRC-5 human embryonal lung fibroblast cells; assay: Cytotoxicity assay (MTT); format: cell-based; conditions: MRC-5 cells
Description: The adherent MRC-5 human embryonal lung fibroblast cells were cultured in 96-well flat-bottomed microtiter plates, using EMEM supplemented with 10% heat-inactivated fetal bovine serum. The density of the cells was adjusted to 1 × 10^4 cells in 100 μL per well, the cells were seeded overnight at 37 °C, 5% CO2, then the medium was removed from the plates containing the cells, and the dilutions of selenocompounds previously made in a separate plate were added to the cells in 200 μL.
The culture plates were incubated at 37 °C for 24 h; at the end of the incubation period, 20 μL of MTT (thiazolyl blue tetrazolium bromide, Sigma) solution (from a stock solution of 5 mg/mL) was added to each well. After incubation at 37 °C for 4 h, 100 μL of sodium dodecyl sulfate (SDS; Sigma) solution (10% in 0.01 M HCI) was added to each well and the plates were further incubated at 37 °C overnight. Cell growth was determined by measuring the optical density (OD) at 540/630 nm with Multiscan EX ELISA reader (Thermo Labsystems, Cheshire, WA, USA). Inhibition of the cell growth was determined according to the formula below:IC50 = 100 − [(ODsample − ODmedium control)/(ODcell control − ODmedium control)] × 100(1)
Results are expressed in terms of IC50, defined as the inhibitory dose that reduces the growth of the cells exposed to the tested compounds by 50%.

[12] = tested on: Staphylococcus aureus ATCC 25923; assay: MIC determination by microdilution method; format: cell-based; conditions: S. aureus ATCC 25923
Description: as §3

[13] = tested on: S. aureus MRSA 272123; assay: MIC determination by microdilution method; format: cell-based; conditions: Staphylococcus aureus
Description: as §3

[14] = tested on: S. aureus MRSA; assay: Biofilm formation using crystal violet; format: cell-based, Staphylococcus aureus; conditions: for Biofilm inhibition: ½ MIC, 48 h
Description: The anti-biofilm effect of the tested compounds against S. aureus strains and wild-type S. Typhimurium SE01 was measured using crystal violet (CV; 0.1% (v/v)). This dye is used to detect the total biofilm biomass formed. Overnight cultures were diluted to OD of 0.1 at 600 nm in TSB medium. Then, the bacterial cultures were added to 96-well microtiter plates and the compounds were added at ½ MIC concentration. The final volume was 200 μL in each well. The microtiter plates were incubated at 30 °C for 48 h with gentle agitation (100 rpm). After the incubation period, TSB medium was discarded, and the plates were washed with tap water to remove unattached cells. Then 200 μL crystal violet was added to the wells and incubated for 15 min at room temperature. Then, CV was removed from the wells and the plates were washed again with tap water, and 200 μL of 70% ethanol was added to the wells. Finally, the biofilm formation was determined by measuring the OD at 600 nm using Multiscan EX ELISA plate reader (Thermo Labsystems, Cheshire, WA, USA). The anti-biofilm effect of compounds was expressed in the percentage (%) of decrease in biofilm formation.

[15] = tested on: S. Typhimurium SE03 ΔacrA; assay: MIC determination by microdilution method; format: cell-based, Salmonella enterica serovar Typhimurium; conditions: Salmonella enterica
Description: as §3

[16] = tested on: S. Typhimurium SE02 ΔacrB; assay: MIC determination by microdilution method; format: cell-based, Salmonella enterica serovar Typhimurium; conditions: Salmonella enterica
Description: as §3

[17] = tested on: S. Typhimurium SE39 ΔtolC; assay: MIC determination by microdilution method; format: cell-based, Salmonella enterica serovar Typhimurium; conditions: Salmonella enterica
Description: as §3

[18] = S. Typhimurium SE01 wild-type, read-out: MIC
[19] = Staphylococcus aureus, ATCC25923
[20] = S. aureus MRSA 272123, read-out: MIC

Row | Structure (SMILES) | Relative Fluorescence Index (RFI) [1] | Relative Fluorescence Index (RFI) [2] | Relative Fluorescence Index (RFI) [3] | Relative Fluorescence Index (RFI) [4] | Relative Fluorescence Index (RFI) [5] | MIC [9, 18] [µM] | Relative Fluorescence Index (RFI) [10] | pIC50 ([11]; Homo sapiens, MRC5, 24 h) | pIC50 ([11]; 24 h) | MIC [12, 19] [µM] | MIC [13, 20] [µM] | MIC [15] [µM] | MIC [16] [µM] | other results
1 | N#CC(C#N)=NNc1cccc(Cl)c1 [CCCP, carbonyl cyanide m-chlorophenyl hydrazone, reference compound] | 2.46 | 3.50 | 1.81 | 1.32 | 0.52 |  |  |  |  |  |  |  |  | 
2 | O=C(O)c1cn(C2CC2)c2cc(N3CCNCC3)c(F)cc2c1=O [CIP, ciprofloxacin-hydrochloride, reference compound] |  |  |  |  |  |  |  |  |  |  |  |  |  | MIC of the antibiotic alone [6]: 1.06 µM; MIC of the antibiotic alone [7]: 33.99 µM
3 | CC(CN1c2ccccc2Sc2ccccc21)N(C)C (stereo not drawn) [Promethazine, promethazine, reference compound] |  |  |  |  |  |  |  |  |  |  |  |  |  | QS zone of inhibition [8]: 46 mm
4 | N#CC[Se]C(=O)c1ccc(C(=O)[Se]CC#N)cc1 [Se-C1] | 0.06 | −0.08 | 0.04 | 0.13 | 0.14 | 25 (≈ 9.25 µg/mL) | −0.15 | < 4.12 | < 4.00 | 6.25 (≈ 2.31 µg/mL) | 50 (≈ 18.5 µg/mL) |  |  | Biofilm inhibition [14]: 43.7% and ~50%
5 | N#CCC[Se]C(=O)c1cccc(C(=O)[Se]CC#N)c1 [Se-C2] | 0.03 | −0.10 | 0.09 | 0.25 | 0.08 | 25 (≈ 9.6 µg/mL) | −0.13 | < 4.12 | < 4.00 | 6.25 (≈ 2.4 µg/mL) | 50 (≈ 19.2 µg/mL) |  |  | 
6 | N#CC[Se]C(=O)c1cc(C(=O)[Se]CC#N)cc(C(=O)[Se]CC#N)c1 [Se-C3] | −0.02 | −0.07 | 0.08 | 0.06 | 0.18 |  | −0.05 | < 4.12 | < 4.00 | 1.56 (≈ 0.805 µg/mL) |  | 12.5 (≈ 6.45 µg/mL) | 12.5 (≈ 6.45 µg/mL) | MIC ([9]; TYPHIMURIUM): 12.5 µM (≈ 6.45 µg/mL); MIC [17]: 25 µM (≈ 12.9 µg/mL); MIC fold higher than the methylketone selenoester [12]: 4 fold; MIC ([13]; MRSA): 12.5 µM (≈ 6.45 µg/mL)
7 | COC(=O)C[Se]C(=O)c1cccc(C(=O)[Se]CC(=O)OC)c1 [Se-E2] | 0.70 | 0.09 | 0.56 | 0.59 | 0.67 | > 100 | 0.33 | < 4.12 | < 4.00 | 12.5 (≈ 5.45 µg/mL) | 100 (≈ 43.6 µg/mL) | > 100 | > 100 | MIC [17]: > 100 µM; Intracellular EB accumulation (in words) ([1]; S. Typhimurium SE02, 60 min): significantly increased; Intracellular EB accumulation (in words) ([3]; S. Typhimurium SE03, 60 min): significantly increased; Intracellular EB accumulation (in words) [4]: significantly increased; EPI activity (in words) ([10]; resistant S. aureus MRSA, 60 min): effective; MIC [12]: 12.5 µM (≈ 5.45 µg/mL); EPI activity (in words) ([5]; reference (sensitive) S. aureus, 60 min): effective
8 | CC(=O)C[Se]C(=O)c1cc(C(=O)[Se]CC(C)=O)cc(C(=O)[Se]CC(C)=O)c1 [Se-K3] | 0.08 | −0.20 | 0.28 | 0.44 | 0.16 | 50 (≈ 28.4 µg/mL) | −0.18 | 6.13 |  | 0.39 (≈ 0.221 µg/mL) | 0.78 (≈ 0.442 µg/mL) | 25 (≈ 14.2 µg/mL) | 25 (≈ 14.2 µg/mL) | Intracellular EB accumulation (in words) [4]: significant EB accumulation; MIC [12]: 0.39 µM (≈ 0.221 µg/mL); Anti-biofilm effect (in words) [14]: most effective anti-biofilm agent; Biofilm inhibition [14]: 84.7%
9 | CN(C)[C@@H]1C(O)=C(C(N)=O)C(=O)[C@@]2(O)C(O)=C3C(=O)c4c(O)cccc4[C@@](C)(O)[C@H]3C[C@@H]12 [TET, tetracycline-hydrochloride, reference compound] |  |  |  |  |  |  |  |  |  |  |  |  |  | MIC of the antibiotic alone [6]: 0.88 µM; MIC of the antibiotic alone [7]: 14.06 µM
